Source: the kinase profiling compilation of Christmann-Franck et al. (2016)

How the values were obtained:
Assay in all cases: radiometric filter-binding kinase assay, Kinaseprofiler
CSNK2A2 (human) = CSNK2A2 (human) (UniProt P19784); details: compound 1.0 µM; ATP 10 µM
CHUK (human) = CHUK (human) (UniProt O15111); details: compound 1.0 µM; ATP 10 µM
PDGFRA (human) = PDGFRA (human) (UniProt P16234); details: compound 1.0 µM; ATP 120 µM
[1] = test system: EPHB2 (human), P29323 [A848S/K918E]; details: compound 1.0 µM; ATP 10 µM
EPHB3 (human) = EPHB3 (human) (UniProt P54753); details: compound 1.0 µM; ATP 90 µM
EPHA8 (human) = EPHA8 (human) (UniProt P29322); details: compound 1.0 µM; ATP 200 µM
[2] = test system: DDR2 (human), Q16832 [S642A]; details: compound 1.0 µM; ATP 200 µM
DDR2 (human), Q16832 [S642A], sequence (Q16832 whole entry, looked up, stated change not applied): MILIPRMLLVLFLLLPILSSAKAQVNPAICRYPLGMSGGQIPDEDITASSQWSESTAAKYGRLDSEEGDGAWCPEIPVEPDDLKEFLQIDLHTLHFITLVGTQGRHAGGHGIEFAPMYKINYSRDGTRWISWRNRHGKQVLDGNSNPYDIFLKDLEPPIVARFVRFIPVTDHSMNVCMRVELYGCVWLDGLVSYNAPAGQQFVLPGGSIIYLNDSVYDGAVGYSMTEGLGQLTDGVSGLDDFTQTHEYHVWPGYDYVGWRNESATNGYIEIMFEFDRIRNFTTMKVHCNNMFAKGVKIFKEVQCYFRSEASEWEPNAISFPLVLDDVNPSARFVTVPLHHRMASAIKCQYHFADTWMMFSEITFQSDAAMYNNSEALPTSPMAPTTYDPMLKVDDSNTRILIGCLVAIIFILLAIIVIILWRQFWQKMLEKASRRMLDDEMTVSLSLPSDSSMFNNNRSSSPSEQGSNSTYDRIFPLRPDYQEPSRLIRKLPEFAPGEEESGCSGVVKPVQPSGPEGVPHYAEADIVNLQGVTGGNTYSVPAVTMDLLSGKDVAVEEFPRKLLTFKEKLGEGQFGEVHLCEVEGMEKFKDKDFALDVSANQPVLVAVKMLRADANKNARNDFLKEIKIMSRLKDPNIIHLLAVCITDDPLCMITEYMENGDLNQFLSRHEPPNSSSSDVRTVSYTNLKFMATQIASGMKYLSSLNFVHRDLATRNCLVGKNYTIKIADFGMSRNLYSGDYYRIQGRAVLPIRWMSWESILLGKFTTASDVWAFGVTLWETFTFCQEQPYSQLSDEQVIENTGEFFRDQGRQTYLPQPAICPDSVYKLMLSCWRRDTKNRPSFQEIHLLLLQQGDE

FYN (human) = FYN (human) (UniProt P06241); details: compound 1.0 µM; ATP 70 µM
TBK1 (human) = TBK1 (human) (UniProt Q9UHD2); details: compound 1.0 µM; ATP 155 µM
FLT3 (human) = FLT3 (human) (UniProt P36888); details: compound 1.0 µM; ATP 200 µM
MAPK11 (human) = MAPK11 (human) (UniProt Q15759); details: compound 1.0 µM; ATP 45 µM
[3] = test system: MAPK14 (human), Q16539 [T106M]; details: compound 1.0 µM; ATP 90 µM
MAPK14 (human), Q16539 [T106M], sequence (Q16539 whole entry T106M, looked up): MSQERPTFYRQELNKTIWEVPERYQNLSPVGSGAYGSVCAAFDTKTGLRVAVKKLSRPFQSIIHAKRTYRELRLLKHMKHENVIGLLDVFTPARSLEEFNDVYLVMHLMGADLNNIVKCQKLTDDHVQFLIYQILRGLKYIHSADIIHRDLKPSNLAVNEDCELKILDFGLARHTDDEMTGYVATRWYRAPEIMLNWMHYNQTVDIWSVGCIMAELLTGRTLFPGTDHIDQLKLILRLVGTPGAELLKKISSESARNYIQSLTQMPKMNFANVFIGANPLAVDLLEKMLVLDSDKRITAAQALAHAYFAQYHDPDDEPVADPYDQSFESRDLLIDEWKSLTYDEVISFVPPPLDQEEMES

MAPK10 (human) = MAPK10 (human) (UniProt P53779); details: compound 1.0 µM; ATP 10 µM
FGR (human) = FGR (human) (UniProt P09769); details: compound 1.0 µM; ATP 45 µM
STK17A (human) = STK17A (human) (UniProt Q9UEE5); details: compound 1.0 µM; ATP 10 µM
MAPK3 (human) = MAPK3 (human) (UniProt P27361); details: compound 1.0 µM; ATP 70 µM
TSSK1B (human) = TSSK1B (human) (UniProt Q9BXA7); details: compound 1.0 µM; ATP 15 µM
NEK11 (human) = NEK11 (human) (UniProt Q8NG66); details: compound 1.0 µM; ATP 200 µM
[4] = test system: AURKA (human), O14965 [I31F]; details: compound 1.0 µM; ATP 15 µM
AURKA (human), O14965 [I31F], sequence (O14965 whole entry, looked up, stated change not applied): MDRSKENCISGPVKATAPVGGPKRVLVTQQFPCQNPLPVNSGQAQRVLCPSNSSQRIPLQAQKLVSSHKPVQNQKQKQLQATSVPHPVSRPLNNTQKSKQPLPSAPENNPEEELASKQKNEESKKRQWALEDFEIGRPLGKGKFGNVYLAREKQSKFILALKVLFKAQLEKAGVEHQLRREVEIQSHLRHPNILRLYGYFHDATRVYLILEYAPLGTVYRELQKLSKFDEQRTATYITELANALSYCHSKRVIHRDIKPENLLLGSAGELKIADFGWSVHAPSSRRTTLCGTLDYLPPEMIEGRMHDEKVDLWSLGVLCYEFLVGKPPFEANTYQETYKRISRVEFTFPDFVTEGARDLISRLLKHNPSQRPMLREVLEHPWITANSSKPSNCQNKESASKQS

CAMK1 (human) = CAMK1 (human) (UniProt Q14012); details: compound 1.0 µM; ATP 200 µM
RPS6KA3 KD1 KD2 (human) = RPS6KA3 KD1 KD2 (human) (UniProt P51812); details: compound 1.0 µM; ATP 10 µM
RPS6KA3 KD1 KD2 (human), sequence (P51812 whole entry, looked up): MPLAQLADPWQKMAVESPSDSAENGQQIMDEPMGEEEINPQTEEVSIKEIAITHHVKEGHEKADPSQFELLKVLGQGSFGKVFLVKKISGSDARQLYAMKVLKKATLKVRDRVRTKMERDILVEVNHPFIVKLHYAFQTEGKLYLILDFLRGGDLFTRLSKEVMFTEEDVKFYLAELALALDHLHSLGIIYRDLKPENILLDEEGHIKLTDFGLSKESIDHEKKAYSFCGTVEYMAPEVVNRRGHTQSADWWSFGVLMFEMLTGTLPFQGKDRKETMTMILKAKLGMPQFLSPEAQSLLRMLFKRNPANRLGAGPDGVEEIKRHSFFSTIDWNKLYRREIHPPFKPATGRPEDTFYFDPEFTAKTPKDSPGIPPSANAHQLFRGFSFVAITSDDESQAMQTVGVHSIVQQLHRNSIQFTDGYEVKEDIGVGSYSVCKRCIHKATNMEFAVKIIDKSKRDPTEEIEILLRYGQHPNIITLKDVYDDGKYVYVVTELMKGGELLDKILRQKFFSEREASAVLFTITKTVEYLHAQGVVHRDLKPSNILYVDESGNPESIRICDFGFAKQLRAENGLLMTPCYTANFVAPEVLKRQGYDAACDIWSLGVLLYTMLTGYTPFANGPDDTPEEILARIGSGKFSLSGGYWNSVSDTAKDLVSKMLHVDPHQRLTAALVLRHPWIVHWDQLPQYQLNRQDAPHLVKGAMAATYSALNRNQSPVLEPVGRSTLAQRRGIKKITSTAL

LCK (human) = LCK (human) (UniProt P06239); details: compound 1.0 µM; ATP 90 µM
BTK (human) = BTK (human) (UniProt Q06187); details: compound 1.0 µM; ATP 200 µM
KDR (human) = KDR (human) (UniProt P35968); details: compound 1.0 µM; ATP 90 µM
EPHA1 (human) = EPHA1 (human) (UniProt P21709); details: compound 1.0 µM; ATP 45 µM
NTRK2 (human) = NTRK2 (human) (UniProt Q16620); details: compound 1.0 µM; ATP 90 µM
NTRK2 (human), sequence (Q16620 whole entry, looked up): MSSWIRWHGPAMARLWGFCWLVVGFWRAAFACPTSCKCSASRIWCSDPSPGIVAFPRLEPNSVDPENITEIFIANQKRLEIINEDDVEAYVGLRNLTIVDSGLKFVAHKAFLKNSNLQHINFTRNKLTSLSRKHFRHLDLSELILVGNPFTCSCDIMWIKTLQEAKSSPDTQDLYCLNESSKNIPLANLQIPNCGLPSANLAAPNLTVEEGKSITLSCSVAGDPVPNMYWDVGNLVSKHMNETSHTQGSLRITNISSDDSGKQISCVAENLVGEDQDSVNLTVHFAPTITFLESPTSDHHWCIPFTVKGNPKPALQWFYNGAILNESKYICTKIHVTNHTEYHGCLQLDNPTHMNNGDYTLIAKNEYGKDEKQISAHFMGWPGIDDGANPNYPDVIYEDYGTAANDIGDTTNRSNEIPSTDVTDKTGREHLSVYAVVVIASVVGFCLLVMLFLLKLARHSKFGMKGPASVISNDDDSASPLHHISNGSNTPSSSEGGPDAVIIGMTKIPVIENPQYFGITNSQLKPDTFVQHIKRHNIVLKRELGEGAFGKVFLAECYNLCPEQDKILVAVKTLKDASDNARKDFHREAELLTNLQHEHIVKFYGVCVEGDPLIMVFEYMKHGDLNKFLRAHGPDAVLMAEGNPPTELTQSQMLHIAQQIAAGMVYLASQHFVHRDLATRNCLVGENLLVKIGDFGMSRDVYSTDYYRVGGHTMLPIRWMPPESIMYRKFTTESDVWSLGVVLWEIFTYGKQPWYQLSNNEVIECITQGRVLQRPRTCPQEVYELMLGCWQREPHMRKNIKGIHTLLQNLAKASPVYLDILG

[5] = test system: AKT3 (human), Q9Y243 [S472D]; details: compound 1.0 µM; ATP 45 µM
MAPK8 (human) = MAPK8 (human) (UniProt P45983); details: compound 1.0 µM; ATP 45 µM
CDK7 CCNH MNAT1 (human) = CDK7 CCNH MNAT1 (human) (UniProt P50613+P51948+P51946); details: compound 1.0 µM; ATP 90 µM
PRKCG (human) = PRKCG (human) (UniProt P05129); details: compound 1.0 µM; ATP 15 µM
DAPK2 (human) = DAPK2 (human) (UniProt Q9UIK4); details: compound 1.0 µM; ATP 10 µM
DAPK2 (human), sequence (Q9UIK4 whole entry, looked up): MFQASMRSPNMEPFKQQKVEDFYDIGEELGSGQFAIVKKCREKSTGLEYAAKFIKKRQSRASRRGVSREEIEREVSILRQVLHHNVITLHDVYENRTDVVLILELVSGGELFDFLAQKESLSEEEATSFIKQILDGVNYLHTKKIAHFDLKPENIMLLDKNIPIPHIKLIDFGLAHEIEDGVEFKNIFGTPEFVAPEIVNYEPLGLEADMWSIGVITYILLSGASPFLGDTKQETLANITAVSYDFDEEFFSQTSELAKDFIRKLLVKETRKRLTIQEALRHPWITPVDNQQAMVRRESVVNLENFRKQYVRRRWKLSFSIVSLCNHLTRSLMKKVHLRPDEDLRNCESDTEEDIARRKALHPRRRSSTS

[6] = test system: MAPKAPK5 (human), Q8IW41 [R291E]; details: compound 1.0 µM; ATP 15 µM
PDGFRB (human) = PDGFRB (human) (UniProt P09619); details: compound 1.0 µM; ATP 200 µM
[7] = test system: PAK2 (human), Q13177 [L150F, P225T, V383I; A339 del]; details: compound 1.0 µM; ATP 90 µM
CHEK2 (human) = CHEK2 (human) (UniProt O96017); details: compound 1.0 µM; ATP 70 µM
PRKCD (human) = PRKCD (human) (UniProt Q05655); details: compound 1.0 µM; ATP 15 µM
ZAP70 (human) = ZAP70 (human) (UniProt P43403); details: compound 1.0 µM; ATP 15 µM
PASK (human) = PASK (human) (UniProt Q96RG2); details: compound 1.0 µM; ATP 15 µM
PASK (human), sequence (Q96RG2 whole entry, looked up): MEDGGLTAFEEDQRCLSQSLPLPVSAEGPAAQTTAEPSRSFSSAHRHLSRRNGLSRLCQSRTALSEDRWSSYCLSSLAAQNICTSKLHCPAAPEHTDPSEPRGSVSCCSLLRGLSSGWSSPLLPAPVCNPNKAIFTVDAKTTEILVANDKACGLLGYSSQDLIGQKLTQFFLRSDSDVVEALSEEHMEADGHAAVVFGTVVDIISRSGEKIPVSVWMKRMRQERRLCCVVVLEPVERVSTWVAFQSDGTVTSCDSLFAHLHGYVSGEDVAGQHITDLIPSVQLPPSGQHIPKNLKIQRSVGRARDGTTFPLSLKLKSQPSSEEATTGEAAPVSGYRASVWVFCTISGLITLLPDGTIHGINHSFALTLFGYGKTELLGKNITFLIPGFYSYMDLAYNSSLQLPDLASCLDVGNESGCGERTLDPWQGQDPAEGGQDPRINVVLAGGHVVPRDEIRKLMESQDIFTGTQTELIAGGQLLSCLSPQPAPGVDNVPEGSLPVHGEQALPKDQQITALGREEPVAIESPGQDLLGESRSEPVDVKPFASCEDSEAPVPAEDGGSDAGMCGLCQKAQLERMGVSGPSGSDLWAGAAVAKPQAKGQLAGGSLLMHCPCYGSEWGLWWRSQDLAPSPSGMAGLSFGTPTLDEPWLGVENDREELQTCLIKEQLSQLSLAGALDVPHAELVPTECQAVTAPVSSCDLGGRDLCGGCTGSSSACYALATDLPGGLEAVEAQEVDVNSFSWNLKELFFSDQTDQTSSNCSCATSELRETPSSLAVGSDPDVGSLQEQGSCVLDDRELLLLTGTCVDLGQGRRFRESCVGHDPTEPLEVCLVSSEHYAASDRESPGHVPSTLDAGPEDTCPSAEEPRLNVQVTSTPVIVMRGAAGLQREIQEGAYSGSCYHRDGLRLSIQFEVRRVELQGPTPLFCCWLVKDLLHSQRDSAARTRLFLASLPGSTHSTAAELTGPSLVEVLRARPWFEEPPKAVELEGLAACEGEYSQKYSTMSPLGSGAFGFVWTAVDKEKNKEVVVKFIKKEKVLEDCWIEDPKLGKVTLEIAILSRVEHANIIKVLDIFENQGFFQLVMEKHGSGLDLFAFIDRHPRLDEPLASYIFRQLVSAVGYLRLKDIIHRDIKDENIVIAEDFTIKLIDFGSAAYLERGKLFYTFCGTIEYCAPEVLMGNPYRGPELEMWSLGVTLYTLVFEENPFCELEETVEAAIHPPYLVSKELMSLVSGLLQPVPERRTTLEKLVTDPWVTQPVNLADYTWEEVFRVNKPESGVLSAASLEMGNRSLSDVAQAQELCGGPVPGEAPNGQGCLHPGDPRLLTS

CN(C)S(=O)(=O)Nc1ccc2ccc3ncc(-c4cnn(C)c4)cc3c(=O)c2c1
residual activity (CSNK2A2 (human)): 123%
residual activity (CHUK (human)): 98%
residual activity (PDGFRA (human)): 59%
residual activity [1]: 103%
residual activity (EPHB3 (human)): 98%
residual activity (EPHA8 (human)): 108%
residual activity [2]: 108%
residual activity (FYN (human)): 64%
residual activity (TBK1 (human)): 93%
residual activity (FLT3 (human)): 26%
residual activity (MAPK11 (human)): 113%
residual activity [3]: 112%
residual activity (MAPK10 (human)): 53%
residual activity (FGR (human)): 90%
residual activity (STK17A (human)): 0%
residual activity (MAPK3 (human)): 120%
residual activity (TSSK1B (human)): 89%
residual activity (NEK11 (human)): 118%
residual activity [4]: 7%
residual activity (CAMK1 (human)): 110%
residual activity (RPS6KA3 KD1 KD2 (human)): 76%
residual activity (LCK (human)): 50%
residual activity (BTK (human)): 83%
residual activity (KDR (human)): 10%
residual activity (EPHA1 (human)): 65%
residual activity (NTRK2 (human)): 15%
residual activity [5]: 96%
residual activity (MAPK8 (human)): 98%
residual activity (CDK7 CCNH MNAT1 (human)): 101%
residual activity (PRKCG (human)): 101%
residual activity (DAPK2 (human)): 91%
residual activity [6]: 97%
residual activity (PDGFRB (human)): 77%
residual activity [7]: 100%
residual activity (CHEK2 (human)): 93%
residual activity (PRKCD (human)): 92%
residual activity (ZAP70 (human)): 127%
residual activity (PASK (human)): 91%
